Experimental data reported in publication PMC6325233, “A Novel Actin Binding Drug with In Vivo Efficacy” (Antimicrobial Agents and Chemotherapy, 2018).
“Also recorded” adds a separate entry of the source.

How the values were obtained:
[1] = test system: Trichophyton mentagrophytes 10207; experiment: MIC susceptibility testing (itraconazole-resistant strain); format: cell-based; conditions: CLSI M38-A2; 96 hours
Method: Occidiofungin was purified from a liquid culture of Burkholderia contaminans MS14 as previously described ([21]). MIC susceptibility testing was performed according to the CLSI M27-A3 and M38-A2 standards for the susceptibility testing of yeasts and filamentous fungi, respectively. S. cerevisiae deletion mutants were obtained from the commercially available BY4741 deletion library (Thermo Scientific).

S. pombe = experiment: FM-464 uptake (endocytosis) assay; format: cell-based; conditions: 0.5 μg/ml (0.5× MIC) and 1 μg/ml (1× MIC), 30 min, 30°C
Method: The hyphal induction assay was performed as previously reported with minor modifications ([58]). Candida albicans strain ATCC 66027 was grown in yeast extract-peptone-dextrose (YPD) medium at 30°C for 48 h to reach saturation with an OD600 of 17 to 19. Cells were diluted into fresh Spider medium (1% nutrient broth, 1% mannitol, 0.2% K2HPO4) to obtain an OD600 of 0.05 (∼0.5 × 10^6 to 1 × 10^6 cells/ml) and incubated at 37°C with shaking to induce hyphal formation. Immediately prior to the 37°C incubation, occidiofungin (1 µg/ml; 0.5× MIC) or an equal volume of DMSO was added to the cultures. Aliquots were removed at 0-, 1-, 2-, 4-, and 6-h time points and fixed in 3.7% formaldehyde for later analysis of cell morphology by light microscopy. More than 200 cells were examined for each time point, and cells were scored as having either a yeast or filamentous form, with cells showing any outgrowth considered filamentous. DNA segregation assays were performed using a mid-log culture of S. cerevisiae (BY4743, diploid) and C. albicans (ATCC 66027). The cultures were diluted in fresh YPD medium to obtain OD600s of 0.095 (∼1 × 10^6 to 1.5 × 10^6 cells/ml) and 0.05 (0.5 × 10^6 to 0.8 × 10^6 cells/ml), respectively. […] Images were viewed using a Nikon 50i fluorescence microscope with a 100× oil immersion objective and DAPI filter. Cells were scored on the basis of bud morphology and DNA location. […]

F-actin = experiment: Actin polymerization and depolymerization assays; format: biochemical; conditions: 20 μg occidiofungin in 20 μL of 1.5% β-cyclodextrin in PBS, pyrene actin
[2] = test system: Schizosaccharomyces pombe; experiment: Intracellular localization and competition, fluorescence microscopy; format: cell-based; conditions: pretreatment with 1× MIC native occidiofungin
Method: S. pombe and S. cerevisiae cells (OD600 of 0.6 to 0.8) were incubated with 1× MIC of alkyne-OF at 30°C, with samples removed at 10, 30, and 60 min postincubation. The cells were washed in PBS and fixed with 3.7% formaldehyde. The cells were permeabilized by adding 0.5% Triton X-100. The cells were washed with PBS before the Click reaction with azide-derivatized Alexa Fluor 488 (Click-iT EdU imaging kit; Thermo Fisher Scientific). The cells were visualized with an Olympus FV1000 confocal microscope. A competition assay was carried out by pretreating cells with 1× MIC of the native occidiofungin followed by treatment with alkyne-OF. […] A 6.6 µM concentration of tetramethyl rhodamine isothiocyanate (TRITC)-tagged phalloidin was added to formaldehyde-fixed cells (permeabilized with 0.2% Triton X-100) for 30 min at room temperature. The cells were washed in PBS, added to a concanavalin A-treated glass slides, and overlaid with Vectashield plus DAPI. Images were viewed using a Nikon 50i fluorescence microscope with a 100× oil immersion objective and Texas Red and DAPI filter sets. Random images were captured using a Retiga EXi black and white charge-coupled-device (CCD) camera and Image Q software. All images were captured using the same exposure settings, with the image contrast altered postcapture using CorelDraw.

With occidiofungin the “MIC, 80% inhibition” value [1] was 1 µg/mL, the “MIC, 100% inhibition” value [1] was 2 µg/mL and the “effect on endocytosis (FM-464-stained vesicles)” value (S. pombe) was “concentration-dependent reductions in stained endocytic vesicles; also recorded: decreased in a dose-dependent fashion”. For the same substance, the “effect on polymerization or depolymerization of F-actin” value (F-actin) was “no effect on the polymerization or depolymerization properties of F-actin” and the “competition with alkyne-OF localization” value [2] was “the observed cellular localization patterns disappeared; also recorded: does not bind”.
